The structures appear in SMILES notation.

`C1CNCCSCCNCCN1` yielded a melting point of 51 to 54 °C. `FC(F)Sc1nc2ncccc2s1` displayed a melting point of 41 to 43 °C. On to `CCCCCCCCN(C)C(=O)C(C)(C)n1cc(C)c(-c2ccccc2)n1`, for which the melting point was in the range of 75 to 78 °C.

In the case of `CC(=O)C=CCCc1ccc(OCc2ccccc2)cc1`, the melting point is 70 to 72 °C. `O=C1c2ccccc2C(Cc2ccncc2)(Cc2ccncc2)C(=O)N1c1ccccc1` yielded a melting point of over 270 °C. `CCN(CCNC(=O)c1cnc2cc(I)ccc2n1)CCNc1cccc(Br)n1` had a melting point of 49 to 51 °C. Take `CCC1=CC(C)(C)Oc2c(OC)cc(Cc3cnc(N)nc3N)cc21`: the melting point was 256 to 257 °C. The compound `O=C(CCl)N1CCC(Cc2ccc(Cl)cc2)CC1` yielded a melting point of 70 °C.

For the compound `O=C(O)c1cn(-c2ccc(F)cc2F)c2cc(Cl)c(F)c(Cl)c2c1=O`, the melting point is 244 to 246 °C. For `O=C(C=Cc1ccncc1)c1cccc(C(F)(F)F)c1`, the melting point was 89 to 90 °C. Take `COc1ccc(C(=O)O)cc1NC(=O)C(CSC(C)=O)Cc1ccccc1` (centres undefined): the melting point lay in the range of 172 to 175 °C.

Take `COc1cc2c(cc1OC)-c1ccc(OC)c(OC)c1C2=Cc1ccnc2ccccc12`: the melting point was in the range of 203 to 205 °C. The compound `Clc1ccn2ncc(Br)c2n1` showed a melting point of 173 to 174 °C.

With `CC(Cn1ccnc1)Cn1cnc2ccc(Br)cc2c1=O` (centres undefined), the melting point was 159 to 162 °C.

Compound `CCC1CC2C3CCc4cc(OC)ccc4C3CCC2(C)C1=O` (centres undefined) gave a melting point of 93 to 94 °C. As to `O=c1nc(-c2ccnc(-c3cccs3)c2)sc2ccccc12`, the melting point lay in the range of 160 to 161 °C. For the compound `COC(=O)C(c1ccccc1)(c1ccccc1)c1c[nH]c(C)n1`, the melting point came to 136 °C. The compound `Cc1oc(-c2ccco2)nc1COc1ccc(Cc2nc(CCC(=O)O)c(-c3ccccc3)o2)cc1` came in with a melting point of 154 to 155 °C.

The compound `Oc1nc(C2CC2)nc2c1SCCC2` registered a melting point of 249 to 250 °C.

Take `CCOCc1nc2c(N)nc3cc(OCc4ccccc4C)ccc3c2n1CC(C)C`: the melting point lay within 216 to 218 °C. The figure for `COC(=O)C(Sc1ccccc1)c1ccc(Oc2ccc(Cl)cc2)cc1` (centres undefined) is 64 to 68.5 °C.

`CNC(=O)Oc1cc(C)c(NC(=O)C(F)(F)Cl)cc1C` displayed a melting point of 187 to 188 °C. Then `ClC(Cl)(Cl)c1nc2ccccc2o1`, with 102 °C. For `CCCCOc1cc(C(=O)O)cc([N+](=O)[O-])c1-c1ccccc1`, the melting point lay within 133 to 134 °C. Regarding `C=CCOc1cccc2oc(C(=O)OCC)c(C)c12`, the melting point fell in the range of 64 to 65 °C. In turn, `CC(C)(CCc1cc2cc(Cl)ccc2n1S(=O)(=O)c1ccccc1)C(=O)O` yielded a melting point of 242 °C. In the case of `CCn1c(C=Cc2ccccc2)cnc1[N+](=O)[O-]`, the melting point lay within 154 to 156 °C. For the compound `O=C1OC(P(=O)(O)C2OC(=O)c3ccccc32)c2ccccc21` (centres undefined), the melting point is 280 to 285 °C. The figure for `CN(C)C=C(C#N)C(=O)Nc1ccccc1Cl` is 122 to 123 °C; for `COC(=O)c1cc(-c2nc(COc3ccc(CCl)cc3OC)c(C)o2)ccc1C` it is 139 to 140 °C; for `COc1nc2ccnn2c2ncccc12` it is 154 °C. In turn, `O=C1NCC=C2N=CN=C12` showed a melting point of 242 to 245 °C.

`CCOC(=O)C(O[Si](C)(C)C)C(O[Si](C)(C)C)c1cc(OC)c(OC)cc1[N+](=O)[O-]` (centres undefined) registered a melting point of 151 to 153 °C. `CCOc1nc2ccc(Cl)cc2c(-c2ccccc2)c1NC(=O)Nc1ccc(F)cc1F` yielded a melting point of 238 to 239 °C. Regarding `Cc1nc(C2CC2)nc(C)c1N1CCCn2c1nc1c(Cl)ccc(C(OC(F)F)C(F)(F)F)c12` (centres undefined), the melting point is 191 to 193 °C. The compound `CC1OC(n2cnc(C(N)=O)c2CC#N)C(O)C1O` (centres undefined) came in with a melting point of 173 to 174 °C. Turning to `Cc1ccc(S(=O)(=O)Nc2cc(C(C)(C)C)c(O)c(C(C)(C)C)c2)cc1`, the melting point was 160 to 180 °C. The figure for `CCOC(=O)C(=O)N(O)Cc1ccc2c(c1)Cc1ccccc1-2` is 130 to 131 °C; for `Fc1ccc(-c2cc(N3CCN(c4ccc(F)cc4)CC3)nc3c2CCCCCC3)cc1` it is 130 to 131 °C; for `CS(=O)(=O)N1CCN(c2nc(N)nc(-c3cc(Cl)ccc3Cl)n2)CC1` it is 184 to 186 °C. The figure for `NS(=O)(=O)c1cccc(-c2cc(-c3nc(-c4ccc(C(F)(F)F)cc4)cc(C(F)(F)F)n3)ccn2)c1` is 237 °C; for `Cc1cn2c(n1)Cc1ccccc1NC2=O` it is 234 to 236 °C. Then `O=[N+]([O-])c1ccccc1NCc1ccco1`, with 85.6 °C; and `COc1cc(OC)nc(C(C)c2ccccc2NC(=O)OC(C)(C)C)n1` (centres undefined), with 119 to 121 °C; and `CC(C)(C)CNc1cc(F)cc(C(=O)Nc2ccc(OCCN3CCOCC3)c3ccccc23)c1`, with 85 to 87 °C. Compound `OC1(c2ccc(Cl)cc2)CCN(CCCn2cnc3ccccc32)CC1` gave a melting point of 160 °C.

With `CCCCCCCCCCCCCCOc1cccc(CBr)c1`, the melting point lay within 34 to 35 °C. `O=C(O)c1ccc(-c2ccncc2)cc1[N+](=O)[O-]`: the melting point lay in the range of 314 to 316 °C. As to `Cc1ccc(-c2ccc3c(c2)C=C(C(=O)Nc2ccc(-c4cccnc4)cc2)CCO3)cc1`, the melting point was in the range of 214 to 216 °C.

For the compound `[N-]=[N+]=C1C(=O)Nc2c1cccc2C(F)(F)F`, the melting point is 173 to 175 °C. As for `COc1ccc(CNc2nc(CCC(=O)O)nc3sc4c(c23)CCCC4)cc1Cl`, the melting point was 135 °C. The figure for `CCOP(=O)(Cc1ccccc1NC(=O)C1=Cc2cc(C3CCCCC3)ccc2CC1)OCC` is 102 to 103 °C; for `N#CC(C(=O)c1cccnc1)c1ccccc1` (centres undefined) it is 148 to 149 °C; for `CNC(=O)Cc1ccc2ccn(C3CCN(CCc4ccccc4F)CC3)c2c1` it is 136 to 137 °C. `CCCCCNCCC1CCCC1CCCCCCC(=O)O` (centres undefined) returned a melting point of 107 to 108 °C. With `CCOC(=O)C1=C(C)NC(c2cnc(Cl)s2)=NC1c1ccc(F)cc1Cl` (centres undefined), the melting point was 159 to 162 °C. The compound `CCOC(=O)C1=C(COCCNCC(=O)OC)NC(C)=C(C(=O)OC)C1c1cccc(Cl)c1Cl` (centres undefined) displayed a melting point of 96 to 98 °C. For the compound `CCOC(=O)c1ncn2c1COc1ccccc1-2`, the melting point fell in the range of 135 to 137 °C. `CCCCCS(=O)(=O)NC(=O)CCc1cc(-c2ccccc2)nn1Cc1ccc(Cl)cc1Cl` displayed a melting point of 145 to 147 °C.

In the case of `COc1cc2[nH]c(SCc3nccc(OC)c3OC)nc2cc1OC(F)F`, the melting point lay in the range of 137 to 138 °C. As for `O=C(O)c1nc(NCC(c2ccccc2)c2ccccc2)c2nc[nH]c2n1`, the melting point is 241 to 249 °C. As for `NS(=O)(=O)c1cccc(NC(=O)c2cnn3c(C(F)(F)F)cc(-c4ccc(Cl)cc4)nc23)c1`, the melting point was determined as 260 °C.

`Cc1cccc2c1ncn2Cc1oc2ccccc2c(=O)c1-c1ccccc1` gave a melting point of 204 to 208 °C. In the case of `O=C(NC(C(=O)O)c1ccccc1)c1ccccc1SSc1ccccc1C(=O)NC(C(=O)O)c1ccccc1` (centres undefined), the melting point is 231 to 232 °C.
